Assay results taken from article PMC6270921, “Study on the Cytotoxic Activity of Drimane Sesquiterpenes and Nordrimane Compounds against Cancer Cell Lines” (Molecules, 2014).

Experiments:
Assay in all cases: Mitochondrial membrane permeability, rhodamine 123 flow cytometry
Format in all cases: cell-based, human
Details in all cases: control treated cells assigned 100%
[1] = system: CoN cells
Source text: (§1) Mitochondria play a crucial role in the apoptotic cascade by serving as a convergent center of apoptotic signals originating from both the extrinsic and intrinsic pathways. Changes induced in the mitochondrial membrane potential (MMP) have been reported previously to represent a determinant in the execution of cell death. As polygodial has been described as an inhibitor of mitochondrial ATPase and also as nonionic surfactant. This effect may be determinant in cell death, we has analyzed the effect of compounds 1, 8 and 12 on the mitochondrial membrane potential using flow cytometry with rhodamine 123 stain [24]. […] Similar differences were observed after treatments with compounds 1 and 8 at 100 μM.
(§2) Rhodamine 123, a cationic, voltage-sensitive probe that reversibly accumulates in mitochondria, was used to detect changes in transmembrane mitochondrial membrane potentials. Cells were labelled with 1 μM rhodamine 123 at 37 °C in cell medium for 60 min before terminating the experiment. Cells were detached from the plate, after washing with ice cold PBS, and the samples were analyzed by flow cytometry. Data are expressed in percentage of cells with rhodamine 123 [24].

[2] = system: MCF-7 cells
Source text: as §1, §2

[3] = system: PC-3 cells
Source text: as §1, §2

For `CC1(C)CCC[C@]2(C)[C@@H](C=O)C(C=O)=CC[C@@H]12` [Compound 1, polygodial], the “percentage of rhodamine 123 stained cells” value (“percentage” below) ([1]; compound 50 µM) was 111.6% ± 8.9%, the “percentage” value ([1]; compound 50 µM, listed as Comp. 1) was 49.1 ± 6.6 % and the “percentage” value ([1]; compound 100 µM) was 11.8 ± 2.9 %. For the same compound, the “percentage” value ([2]; MCF-7, compound 50 µM) was 77.0% ± 6.5%, the “percentage” value ([2]; MCF-7, compound 50 µM, listed as Comp. 1) was 77.0 ± 6.5 % and the “percentage” value ([2]; MCF-7, compound 100 µM) was 19.4 ± 1.5 %. For the same compound, the “percentage” value ([3]; PC-3, compound 50 µM) was 49.1% ± 6.6%, the “percentage” value ([3]; PC-3, compound 50 µM, listed as Comp. 1) was 111.6 ± 8.9% and the “percentage” value ([3]; PC-3, compound 100 µM) was 11.9 ± 2.4 %.
